Literature values in patent publication US8148337B2, “Vaginal compositions for treating pelvic tissue infections and traumas” (priority 2003, dated 2012).

How the values were obtained:
chlamydial infection = conditions: orally as a single dose
[1] = administered rectally

CC[C@H]1OC(=O)[C@H](C)[C@@H](O[C@H]2C[C@@](C)(OC)[C@@H](O)[C@H](C)O2)[C@H](C)[C@@H](O[C@@H]2O[C@H](C)C[C@H](N(C)C)[C@H]2O)[C@](C)(O)C[C@@H](C)CN(C)[C@H](C)[C@@H](O)[C@]1(C)O [azithromycin]
women who experience side effects (chlamydial infection): 25%
bioavailability [1]: highly variable and low
